From ChEMBL document CHEMBL1201862, “PubChem BioAssay data set” (2004)
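Growth conditions: 96-well plates. Treatment: test compound, 48 hours, 5 concentrations. Analysis: linear interpolation between bracketing concentrations; unreached endpoints set to highest concentration. GI50 = concentration required for 50% inhibition of growth.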 Active and inactive are the calls of the source. Rule as the data show it: active = GI50 up to about 1.1 µM and inactive = higher.

Assays:
Assay in all cases: NCI-60 cell line screen, 48 h
T47D = test system: T47D
NCI-H522 = test system: NCI-H522
UACC-62 = test system: UACC-62
786-0 = test system: 786-0
A498 = test system: A498
M14 = test system: M14
PC-3 = test system: PC-3
SW-620 = test system: SW-620
UO-31 = test system: UO-31
TK-10 = test system: TK-10
OVCAR-8 = test system: OVCAR-8
KM12 = test system: KM12
SNB-75 = test system: SNB-75
RXF 393 = test system: RXF 393
SNB-19 = test system: SNB-19
HCT-116 = test system: HCT-116
SR = test system: SR
HOP-92 = test system: HOP-92
ACHN = test system: ACHN
MOLT-4 = test system: MOLT-4

Measured: GI50

O=C1N[C@@H]2c3c(csc3Br)C(=O)[C@@H]2O1
inactive: T47D 28.8 µM | NCI-H522 30.1 µM | UACC-62 34.1 µM | 786-0 33.2 µM | A498 > 100 µM | M14 37.3 µM | PC-3 41.6 µM | SW-620 20.2 µM | UO-31 20.9 µM | TK-10 27.4 µM | OVCAR-8 22.2 µM | KM12 47 µM | SNB-75 48.4 µM | RXF 393 15.5 µM | SNB-19 94 µM | HCT-116 27.8 µM | SR 26.1 µM | HOP-92 20.8 µM | ACHN 37.2 µM | MOLT-4 19.9 µM

COC(=O)[C@H](CC(C)C)NC1=C(Cl)C(=O)c2c(O)ccc(O)c2C1=O
inactive: T47D > 10 µM | NCI-H522 > 10 µM | UACC-62 > 10 µM | 786-0 6.97 µM | A498 > 10 µM | M14 3.45 µM | PC-3 > 10 µM | SW-620 9.64 µM | TK-10 > 10 µM | OVCAR-8 > 10 µM | KM12 6.43 µM | SNB-75 > 10 µM | RXF 393 > 10 µM | SNB-19 > 10 µM | HCT-116 2.46 µM | SR > 10 µM | HOP-92 > 10 µM | ACHN > 10 µM | MOLT-4 3.52 µM

Cc1cc(S(=O)(=O)NC2=Nc3cccc(F)c3CN2)c(S)cc1Cl
inactive: T47D 28.1 µM | NCI-H522 52.6 µM | UACC-62 62.1 µM | 786-0 47.5 µM | A498 > 100 µM | M14 40 µM | PC-3 56.2 µM | SW-620 53.6 µM | UO-31 87.5 µM | TK-10 > 100 µM | OVCAR-8 61 µM | KM12 45.7 µM | SNB-75 > 100 µM | RXF 393 > 100 µM | SNB-19 23.2 µM | HCT-116 38.7 µM | SR 48.5 µM | HOP-92 > 100 µM | ACHN 66.4 µM | MOLT-4 49.3 µM
